One data set relates to DENV3 strain MY05-34640. The experiment in a line: DENV3 infected A549 cells, high content imaging (HCI). The data set is classed as cell-based. The note with it: 48 hr. On the procedure: (§1) 2 Co mpound testing with DENV dn I FAPA assays. Final dn I assa y reaction mixtures
(§2) 3 contained 100 nM DENV 5 ´UTR-L-3´UTR IVT RNA, 20 µ M ATP, 20 µM GTP, 20 µM
(§3) 4 UTP, 5 µM ATTO -CTP, and 100 nM of DENV FL NS5 protein in 15 µl in assa y buffer
(§4) 5 comprising 50 mM Tris/ HCl, pH 7.5, 10 mM KCl, 1 mM MgCl2, 0.3 mM MnCl2 (DENV2
(§5) 6 and 4) or 1 mM MnCl 2 (DENV1 and 3), 0.001% Triton- X-100 and 10 µ M cystein e [ 1] . To
(§6) 7 perform dose-respons e inhibition measurements, compounds from 0- 20 or - 100 µM
(§7) 8 concentr ations are two -fold seriall y diluted into 384-well black opaqu e plat es (Corning
(§8) 9 Costar), after which 100 nM DENV FL NS5 protein was added into resp ect ive wells. The
(§9) 10 plates wer e sealed, b riefl y shak en and centrif uged at 1500 rpm for 30 sec and incubated at RT
(§10) 11 for 15 min. Thereafter,RNA and ATTO -CTP, ATP, GTP and UTP were added to the wells to
(§11) 12 start the reactions. The pl ates wer e re-seal ed, shaken and centrifuged as before, followed b y
(§12) 13 incubation RT for 120 min. […]
(§13) 15 intestinal phosphatase (CIP), re- incubation at RT for 60 min and read on a Tecan Safire II
(§14) 16 microplate reader. […]
(§15) 8 DENV envelope protein ) and DRAQ5 (for nucl ear DNA) . Quantifications of DENV
(§16) 9 envelope protein were determined using the Opera high content imaging s ystem and anal ysis […]
(§17) 17 µM concentrations. At 48 hr of post-incubation, r enilla luciferas e activities were measured […]

In data set [1] the test system is clinical DENV2 isolate MY97-10340. The experiment in a line: DENV2 infected A549 cells, high content imaging (HCI). The format is cell-based. The note with it: Dengue virus, 48 hr. The method, then:
as §1, §2, §3, §4, §5, §6, §7, §8, §9, §10, §11, §12, §13, §14, §15, §16, §17

Another data set concerns the target T1, DENV2 FL NS5 (Dengue virus type 2, UniProt P14340).
T1 construct: made in house
The experiment in a line: DENV2 FL NS5 de novo initiation FAPA assay. The format is biochemical. The note with it: one experiment; read-out: DENV FL NS5 de novo initiation FAPA, IC50, DENV2. On the procedure:
DENV1-4 FL NS5 dnI assays were performed as described previously. Briefly, compounds from 0–20 or -100 μM concentrations are two-fold serially diluted into 384-well black opaque plates (Corning Costar), after which 100 nM DENV FL NS5 protein was added and the plates incubated at RT for 20 min. RNA and ATTO-CTP, ATP, GTP and UTP were then added and the plates incubated for another 120 min. […] For order-of-addition experiments, DENV4 FL NS5 was incubated for one hour at RT with RNA, ATP, and GTP or RNA, ATP, GTP and ATTO-CTP, followed by exposure to serially diluted compounds for 20 min at RT. The missing components (ATTO-CTP and UTP or UTP alone) were added and the reactions continued for 120 min after which STOP buffer was added as before. All datapoints were performed in duplicate wells. Each compound was tested at least twice.
as §1, §2, §3, §4, §5, §6, §7, §8, §9, §10, §11
13 incubation RT for 120 min.
as §13
16 microplate reader. For o r der-of-addition experiments, DENV4 FL NS5 was incubated for one
17 hour at RT with RNA, ATP, and GTP or RNA, ATP, GTP and ATTO-CTP, followed by
18 exposure to seriall y dilut ed compounds for 20 mi n at RT. The missing components (ATTO-
19 CTP and UTP or UTP alone) were added and the reactions continued for 120 min after which
20 STOP buffer was added as before. All datapoints were performed in duplicate wells. Each
21 compound was tested at l east twice.
23 Compound testing in DENV1-4 infected cells by high content imaging. Approximatel y 7
24 × 10^3 A549 cells per well were s eeded into 384-well plates in Ham’s F-12K medium

The next data set concerns the target T2, DENV1 FL NS5 (Dengue virus type 1, UniProt P17763).
T2 construct: 100 nM DENV FL NS5 protein was added; made in house
The note with it: read-out: DENV FL NS5 de novo initiation FAPA, IC50, DENV1; cited from earlier work.

A further data set relates to HuH-7. The experiment in a line: in vitro. The data set is classed as cell-based. The conditions noted are these: HuH-7 (DENV2 replicon cells); 48 hr; ATP levels. On the procedure:
A549, BHK-21 and Huh7 cells bearing stable DENV2 sub-genomic replicon or transiently electroporated DENV2-NGC replicon or infectious virus cDNAs were seeded into 384-well microplate (3,000 cells per well). After over-night incubation at 37°C with 5% CO2, the cells were treated with 2-fold serially diluted compounds, starting from 20 or 50 μM. At 48 hr of post-incubation, renilla luciferase activities were measured with the ViviRen live-cell substrate (Promega, USA) according to the manufacturer’s protocol. CellTiter-Glo reagent (Promega, USA) was then added to determine cytotoxic effects of compounds. For the HCV replicon assay, Huh-7.5 cells harboring the HCV replicon were seeded into a 96-well microplate (20,000 cells per well). At 48 hr after compound treatment, cells were assayed for firefly luciferase activity by using a Bright-Glo luciferase assay (Promega, USA). NITD-008, a nucleoside inhibitor of DENV and HCV was added as a control.
(In general: Replicon systems follow genome replication, usually without infectious particles.)

Here are results for two molecules from PMC4976923, “Potent Allosteric Dengue Virus NS5 Polymerase Inhibitors: Mechanism of Action and Resistance Profiling” (PLoS Pathogens, 2016).

Broadly, the EC50 is the concentration giving half of the maximal effect. Higher therefore signals weaker potency. The IC50 is the point on the concentration scale where inhibition reaches its midpoint. By CC50 is commonly meant the concentration giving 50% cytotoxicity.

T2 sequence (P17763 2494-3392): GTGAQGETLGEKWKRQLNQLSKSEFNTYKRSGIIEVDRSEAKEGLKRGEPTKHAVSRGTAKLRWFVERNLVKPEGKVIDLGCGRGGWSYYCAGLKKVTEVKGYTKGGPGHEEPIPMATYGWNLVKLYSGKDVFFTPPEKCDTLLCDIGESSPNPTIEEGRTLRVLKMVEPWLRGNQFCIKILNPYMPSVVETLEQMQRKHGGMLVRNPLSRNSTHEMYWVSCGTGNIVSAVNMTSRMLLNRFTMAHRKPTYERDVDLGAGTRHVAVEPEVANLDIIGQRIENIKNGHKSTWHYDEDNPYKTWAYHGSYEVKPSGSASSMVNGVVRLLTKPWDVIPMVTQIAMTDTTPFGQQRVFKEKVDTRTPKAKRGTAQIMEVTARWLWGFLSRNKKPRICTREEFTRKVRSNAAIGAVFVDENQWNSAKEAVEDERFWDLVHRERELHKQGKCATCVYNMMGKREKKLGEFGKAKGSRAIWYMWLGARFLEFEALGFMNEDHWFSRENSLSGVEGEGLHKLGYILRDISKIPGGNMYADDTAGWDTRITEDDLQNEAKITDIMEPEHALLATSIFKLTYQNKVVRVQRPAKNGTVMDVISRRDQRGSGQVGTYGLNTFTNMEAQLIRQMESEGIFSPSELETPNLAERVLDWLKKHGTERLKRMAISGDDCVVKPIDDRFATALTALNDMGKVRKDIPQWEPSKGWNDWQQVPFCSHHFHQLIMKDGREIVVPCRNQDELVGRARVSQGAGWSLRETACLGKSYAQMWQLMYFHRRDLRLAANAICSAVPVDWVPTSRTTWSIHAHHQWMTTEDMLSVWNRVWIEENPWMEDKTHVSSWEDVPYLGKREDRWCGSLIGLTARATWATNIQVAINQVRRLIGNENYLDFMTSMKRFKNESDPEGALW

With `COc1cccc(S(=O)(=O)NC(=O)c2cc(-c3ccc(C#CCO)s3)c(OC)cc2C)c1` [Compound 26i], the EC50 was 16.8 µM in the data set with DENV3 strain MY05-34640 and 26.9 µM in data set [1]. The IC50 on DENV2 FL NS5 is 86 nM.
For the molecule `COc1cccc(S(=O)(=O)NC(=O)c2cc(-c3ccc(C#CCO)s3)c(OC)cc2OC)c1` [Compound 27], the IC50 at DENV1 FL NS5 was 68 nM. Besides, in the data set with HuH-7, the CC50 is > 50 µM.
